From publication PMC8750417, “Intracellular Amplifiers of Reactive Oxygen Species Affecting Mitochondria as Radiosensitizers” (Cancers, 2021)

Assays:
[1] = n-octanol/water partition coefficient (logP) by RP-TLC; format: physicochemical; settings: n-octanol/water partition coefficient of the hydrolyzed boronic acid (_BA) form of the prodrug named
Method: Determination of n-octanol/water partition coefficients (LogP) […]
mixture of dichloromethane/CH3OH at proper concentrations. Commercially available […]
7.4) (6/4, v/v) was used. The solvent migration distance was around 4.5 cm. The plates […]
and its distance was manually measured. All measurements were done in at least triplicate and average values were used in further calculations. All experiments were performed at ambient temperature (22 ± 2 °C). […]

[2] = tested on: A2780 cells; assay: Cell viability, MTT assay, A2780; format: cell-based, human
Method: (§1) Determination of viability of cells in the presence of prodrugs and controls A2780 and BL-2 cells The medium was removed, and the cells were washed two times with DPBS, trypsinated, and resuspended in RPMI 1640 medium (A2780) supplemented with 5% FBS (for 24 h and 48 h assay) or 10% FBS (for 96 h assay) , 1% L-glutamine, and 1% penicillin/streptomycin.
(§2) A2780 cells: This suspension was spread in the wells of a 96 -well microtiter plate (25000 cells for A2780 per well per 100 μL) and left standing at 37 °C in the chamber filled with CO2 (5%) for overnight. Stock solutions of prodrugs of different concentra tions (1 μL, solvent dmso, final concentrations in wells were 2, 5, 10, 30, 50 μM) were added to the wells and incubated for specific periods of time. Four experiments were conducted for each concentration of the prodrug. Finally, 3-(4,5-dimethylthiazol-2-yl)-2,5-diphenyltetrazolium bromide (MTT, 20 μL of the solution prepared by dissolving MTT (5 mg) in DPBS buffer (1 mL)) was added to each well, incubated for 3 h, treated with sodium dodecyl sulfate (SDS) solution (90 μL, 10% solution in 0.01 M aqueous HC l), and incubated overnight. Afterward, the intensity of the absorbance at 590 nm was measured.
(§3) MTT is converted in live cells to blue dye with the absorbance maximum λ max at 590 nm.
The absorbance at 690 nm was taken as a baseline value. The baseline corrected absorbance at 590 nm (A(590 nm) − A(690 nm)) was applied to calculate the relative number of viable cells. IC50 values were determined by fitting the experimental data expressing the number of viable cells (%, Y-axis) versus drug concentration (μM, X-axis) with a line curve and the X-axis value corresponding to 50% viability was considered as IC50 value according to the line curve (Figure S50, Table S2). […]

[3] = tested on: BL-2 cells; assay: Cell viability, MTT assay, BL-2; format: cell-based, human; settings: BL-2, 48 h incubation
Method: as §1, §2, §3
The absorbance at 690 nm was taken as a baseline value. The baseline corrected absorbance at 590 nm (A(590 nm) − A(690 nm)) was applied to calculate the relative number of viable cells. IC50 values were determined by fitting the experimental data expressing the number of viable cells (%, Y-axis) versus drug concentration (μM, X-axis) with a line curve and the X-axis value corresponding to 50% viability was considered as IC50 value according to the line curve (Figure S50, Table S2).
BL-2 cells: The cells were centrifuged, the medium was removed, and the cells were washed two times with DPBS and re-suspended in RPMI 1640 medium containing 5% (48 h incubation) or 10% FBS (96 h incubation), 1% L-glutamine, and 1% penicillin/ streptomycin. This suspension was spread in the wells of a 96-well microtiter plate (50000 cells per well per 100 μL). Other steps were identical to those was described in determination of viability of adherent cells (given above) (Table S3).

[4] = tested on: Jurkat cells; assay: Jurkat flow cytometry (AnnexinA5/PI viability, DiIC1(5) MMP, monobromobimane GSH, cell cycle); format: cell-based, human; settings: 48 h incubation
Method: Jurkat cells The cells were counted in MUSE Cell Analyzer using MUSE® Count &Viability Assay Kit (Merck-Millipore, Billerica, MA, USA) and adjusted to a density of 1.0 x 10^5/ml in RPMI 1640 medium (with 10% FCS and 1% glutamine). 9.000 cells per well per 90 µL were seeded into 96 well culture plates. The 30 mM prodrug stock solutions in DMSO were diluted to 300 µM, 100 µM, 30 µM and 10 µM in cell culture medium and 10 µL of the dilutions was pipetted to the cells, receiving final test concentrations of 30 µM, 10 µM, 3 µM and 1 µM. Every concentration was tested in triplicates. Cells with corresponding amounts of DMSO served as negative controls. After 48 h cells were mixed and 25 µL of […]
the cell suspension was incubated with 200 µL of freshly prepared staining solution, consisting of AnnexinA5-Fitc (1 µL), 1,1′,3,3,3′,3′-hexamethylindodicarbocyanine iodide (DiIC1(5), 0.4 µL) (both from ThermoFisher Scientific, Waltham, MA, USA), propidium iodide (PI, 67 ng) and monobromobimane (MBB, 33 µM, both from Sigma-Aldrich, Taufkirchen, Germany) per 1 ml Ringer’s solution (Fresenius Kabi AG, Bad Homburg, Germany). Cells were incubated for 20 min at 4°C and then analyzed in Gallios cytofluorometer™ (Beckman Coulter, Fullerton, CA, USA). Fitc and propidium iodide were excited at 488 nm; Fitc fluorescence was recorded on the FL1 sensor (525/38 nm band pass, BP) and propidium iodide fluorescence was detected on FL3 sensor (620/30 nm BP), DiIC1(5) fluorescence was excited at 638 nm and detected on FL6 sensor at 675/20 nm BP, and monobromobimane fluorescence was excited at 405 nm and detected on FL9 sensor at 430/40 nm BP. To eliminate any fluorescence bleed-through, electronic compensation was used. Data were analyzed employing Kaluza™ software Version 1.2 (Beckman Coulter, Fullerton, CA, USA) and processed in Microsoft Excel (Figures S51-S54, Table S5). Cells negative for Annexin A5-Fitc and propidium iodide were considered viable. IC50 values were determined by fitting the % values of Ax-PI- cells versus drug concentration with a sigmoidal curve using GraphPad Prism software. Reduced glutathione (an intracellular thiol) can be detected by monobromobimane, a dye that becomes fluorescent after non-enzymatic binding to thiols.[S3] For analysis of amount of mitochondrial membrane potential or reduced glutathione the mean fluorescence index (MFI) was determined from viable cells by gating on Ax -PI- events.
Table S5. Effects of the prodrugs on the viability of Jurkat cell lines (IC50 values) after 48

SMILES	logP (Hydrolyzed Prodrug) [1]	IC50 ([2]; A2780, 48 h incubation) [µM]	further results
CCOC(=O)CCCCCn1cc(CN(C(=O)OCc2ccc(B(O)O)cc2)[c-]2cccc2)nn1.[Fe+2].c1cc[cH-]c1 [1_BA, reference compound]	2.83 ± 0.07		
O=C(OCc1ccc(B(O)O)cc1)N(Cc1cn(Cc2ccc(Cn3cc(Cc4ccccc4)nn3)cc2)nn1)[c-]1cccc1.[Fe+2].c1cc[cH-]c1 [2c_BA]	3.23 ± 0.11		
C1=CCC=C1.CC1(C)OB(c2ccc(COC(=O)N(Cc3cn(CCC[P+](c4ccccc4)(c4ccccc4)c4ccccc4)nn3)C3C=CC=C3)cc2)OC1(C)C.[Fe+2] [5c, reference compound]		5 ± 2	IC50 ([2]; A2780, 24 h incubation): 10 ± 3 µM; IC50 ([2]; A2780, 96 h incubation): 5 ± 2 µM; IC50 [3]: 5 µM; IC50 [4]: 20 µM
[Fe+2].c1cc[cH-]c1.c1ccc(Cn2cc(CN[c-]3cccc3)nn2)cc1 [compound 3]		> 50	
[Fe+2].c1cc[cH-]c1.c1ccc(CN[c-]2cccc2)cc1 [compound 4]		> 50	
